Drawing on PMC4629473 (European journal of medicinal chemistry, 2015), this text covers IC50, CC50 and EC50 for three compounds.

Like-named read-outs stand apart in the source and are kept apart here.

For orientation: IC50 means the concentration needed to halve the response being measured. As usually defined, the CC50 is the concentration that lowers cell viability or growth by half.

The target in series [1] is HIV-1 IN recombinant protein (Human immunodeficiency virus type 1 group M subtype B, UniProt P12497). Briefly: HIV-1 integrase 3′-processing gel-based assay. The series is classed as biochemical.
For a further series, the system named is CEM cells. Briefly: Cytotoxicity in CEM cells. The class given is cell-based.
The next series deals with PBM cells. Briefly: Cytotoxicity in normal PBM cells. The series is classed as cell-based, human.
The next series concerns HIV-1. Briefly: Antiviral activity against HIV-1 in activated primary human PBM cells. The class given is cell-based. The settings on record: read-out: EC50 (μM), concentration required to induce 50% of inhibition.
The next series deals with Vero cells. Briefly: Cytotoxicity in Vero cells. The class given is cell-based.

With `CCOC(=O)c1c(-c2ccccc2)nc(=O)n(Cc2ccc(C(=O)/C=C(\O)C(=O)O)cc2)c1C` [4a, 4-[4-[(5-ethoxycarbonyl-6-methyl-2-oxo-4-phenyl-pyrimidin-1-yl)methyl]phenyl]-2-hydroxy-4-oxo-but-2-enoic acid], the half-maximal inhibitory concentration (IC50) in series [1] was over 111 µM.
Consider “Ethyl (Z)-1-(4-(3-hydroxy-4-isopropoxy-4-oxobut-2-enoyl)benzyl)-4-(4-methoxyphenyl)-2-oxo-6-phenyl-1,2-dihydropyrimidine-5-carboxylate [4′l]”, for which the CC50 was 25.3 µM with CEM cells, over 100 µM in the series with PBM cells and over 100 µM with Vero cells. In addition, in the series with HIV-1, the EC50 was 80.6 µM.
For “Ethyl (Z)-6-ethyl-1-(4-(3-(3-hydroxy-4-isopropoxy-4-oxobut-2-enoyl)benzyl)benzyl)-2-oxo-4-phenyl-1,2-dihydropyrimidine-5-carboxylate [19′]”, the CC50 was 8.9 µM in the series with CEM cells (read-out: CC50 (μM) CEM, CEM cells, concentration reducing cell growth by 50%); 47.6 µM in the series with PBM cells (read-out: CC50 (μM) PBM, PBM cells, concentration reducing cell growth by 50%); over 100 µM with Vero cells (read-out: CC50 (μM) VERO, VERO cells, concentration reducing cell growth by 50%). Further, the EC50 with HIV-1 was found to be 36.8 µM.
